Columns and labels:
Assay type in all cases: cell-based, human
ERK = ERK biosensor (ERK-KTR-mClover) live imaging; details: Dab or Vem alone, 24 h, 1.2 mM calcium
Protocol: For live imaging of the ERK biosensor, NHEKs were transduced with ERK-KTR-mClover (Addgene Cat. #59150). HEK293FT cells were grown in complete DMEM, then transfected with 4 μg pLenti-CMV-PuroDEST-ERK-KTR-mClover DNA plus 12 μl FuGENE 6 (Promega of Madison, WI, Cat. #E2691) in 800 μL of Opti-MEM (Thermo-Fisher Cat. #31985070), which was added to the cells and left overnight. Lentiviral supernatants were collected the next day and polybrene (Sigma Cat. #H9268) was added at a concentration of 4 μg/mL. M154 was removed from NHEKs and replaced with viral medium for 1 hour at 37° C. Cells were then washed in PBS and placed back in their normal medium and expanded in culture.
ERK-KTR-mClover-transduced cells were seeded into 35 mm glass-bottom dishes in low calcium medium (0.31 mM) and grown to confluency. […] Using Fiji (Fiji software, https://github.com/fiji/fiji), the nuclear region was encircled with the polygon tool and the “Measure” function was used to calculate the mean fluorescence intensity; after using the “Cut” function to remove the nuclear region, then remaining cytoplasmic region was encircled with the polygon tool and the “Measure” function was used to calculate the mean fluorescence intensity. The ERK activity index was calculated as the ratio of the cytoplasmic integrated fluorescence intensity (active) to the nuclear integrated fluorescence intensity.

HET cells (THEKs) = test: Immunoblot of KRT10 and KRT14 in keratinocyte lysates; details: 1 μM Dab, 1 μM Tram, 10 μM U0126, 10 μM PD184352, 20 μM PD98059 (FIG. 10D)
Protocol: THEKs were seeded at a density of 1×10^6 cells per well of 6-well cell culture dishes in KSFM. Upon reaching confluence, KSFM was replaced with E-medium containing vehicle control (DMSO) or inhibitors at the following concentrations: Dabrafenib (1 μM), trametinib (1 μM), U0126 (10 μM), PD184352 (10 μM), or PD98059 (20 μM). After 72 hours, whole-cell lysates were generated by washing cells once in PBS followed by lysis in urea sample buffer [8 M Urea, 60 mM Tris, 1% sodium dodecyl sulfate (SDS), 10% glycerol, 5% β-mercaptoethanol, 0.0005% pyronin-Y, pH 6.8] for 10 min. Lysates were homogenized using a microtip probe sonicator (Fisher Scientific).
Whole-cell lysates were loaded onto Any kD Mini-PROTEAN TGX Precast Protein Gels (Bio-Rad) and separated by electrophoresis. Proteins were transferred onto nitrocellulose membranes (Bio-Rad) in ice-cold Towbin transfer buffer (25 mM Tris, 192 mM glycine, 20% (v/v) methanol) at 100 volts (V) for 90 minutes at 4° C. Membranes were blocked in Intercept tris-buffered saline (TBS) blocking buffer (LI-COR) for 45 min at room temperature. Membranes were probed overnight at 4° C. with the primary antibodies diluted at 1:1000 in Intercept TBS blocking buffer (LI-COR). […]

NHEKs [1] = test: Immunofluorescence of plakoglobin / desmosomal protein localization; details: B-RAF inhibitor alone, 24 hours in E-medium
Protocol: Keratinocytes were grown to confluency in 35 mm glass-bottom cell culture dishes (MatTek of Ashland, MA, Cat. #P35G-1.5-20-C). For staining keratins and desmosomal proteins, cells were fixed in ice-cold 100% methanol at −20° C. for 2 minutes, allowed to dry, then re-hydrated in PBS. For staining other proteins, cells were fixed in 4% paraformaldehyde for 10 minutes at 37° C. Fixed cells were then incubated with blocking buffer [0.5% (w/v) bovine serum albumin (BSA, Sigma), 10% (w/v) normal goat serum (NGS, Sigma) in PBS] for 30 min at 37° C. Cells were then washed with PBS. Primary antibodies were diluted in 0.5% (w/v) BSA in PBS and incubated on the cells overnight at 4° C. Primary antibody dilutions were as follows: chicken anti-plakoglobin (1:1000). […]
Images were acquired on a Hamamatsu ORCA-FusionBT sCMOS camera (Hamamatsu of Hamamatsu City, Japan) using a Yokogawa W1 spinning-disk confocal (SDC) system (Yokogawa of Musashino, Tokyo, Japan) on a Nikon Ti2 microscope (Nikon of Minato City, Tokyo, Japan). Samples were illuminated using 405, 488, 561, and 640 nm laser excitation lines and fluorescence was detected using a 60×1.2 numerical aperture (NA) water objective (Nikon) with standard emission filters.

NHEKs [2] = test: Immunoblot of cadherins and plakoglobin in NHEK lysates; details: 24 hours in E-medium, vs DMSO
Protocol: NHEKs were seeded at a density of 1×10^6 cells per well of 6-well cell culture dishes in M154. Upon reaching confluence, M154 was replaced with E-medium containing vehicle control (DMSO) or inhibitors at the following concentrations: Dabrafenib (1 μM), vemurafenib (10 μM), trametinib (1 μM). After 24 hours, whole-cell lysates were generated by washing cells once in phosphate-buffered saline (PBS) followed by lysis in urea sample buffer [8 M Urea, 60 mM Tris, 1% SDS, 10% glycerol, 5% β-mercaptoethanol, 0.0005% pyronin-Y, pH 6.8] for 10 min. Lysates were homogenized using a microtip probe sonicator (Fisher Scientific).
Whole-cell lysates were loaded onto NuPAGE 12% Bis-Tris Gels (Thermo-Fisher Cat. #NP0343BOX) and separated by electrophoresis using NuPAGE MES SDS Running Buffer (Thermo-Fisher Cat. #NP0002). Proteins were transferred onto Immobilon-FL membrane (Millipore of Burlington, MA, Cat. #IPFL85R) in transfer buffer (25 mM Tris, 192 mM glycine, 20% (v/v) methanol) at 50 volts (V) for 60 minutes. Membranes were blocked in Intercept tris-buffered saline (TBS) blocking buffer (LI-COR) for 60 minutes at room temperature. Membranes were probed overnight at 4° C. with the primary antibodies diluted in Intercept TBS blocking buffer (LI-COR). […]

CC(C)(C)c1nc(-c2cccc(NS(=O)(=O)c3c(F)cccc3F)c2F)c(-c2ccnc(N)n2)s1 [dabrafenib]
ERK activity (biosensor) (ERK): induced ERK activation | KRT10 by immunoblot (HET cells (THEKs)): failed to rescue KRT10 expression | localization of desmosomal proteins (NHEKs [1]): induced mislocalization of desmosomal proteins | protein levels of classical cadherins, desmosomal cadherins (DSG1, DSG2, DSG3) and plakoglobin (NHEKs [2]): did not appreciably alter

Source: patent publication US20240299394A1, “TARGETED TREATMENT FOR SKIN FRAGILITY DISEASES” (University of Washington, priority 2023, published 2024)
